# Source: patent US10470986B2, “Resorcinol compounds for dermatological use” (Conopco, Inc., priority 2013, dated 2019)
# Tests used:
# MelanoDerm (Mel-300-B) = assay: Mattek 3D Skin Equivalents, MelanoDerm (Mel-300-B) assay; type: cell-based, human; conditions: every other day, 14 days
# From the text: Many people at different stages of their life are concerned with the degree of pigmentation of their skin and may wish to reduce the skin darkening, or may wish to lighten or even-tone their natural skin color. The mechanism by which skin pigmentation is formed, melanogenesis, is particularly complex and schematically involves the following main steps: Tyrosine→L-Dopa→Dopaquinone→Dopachrome→Melanins. The first two reactions in this series are catalyzed by the enzyme tyrosinase. The activity of tyrosinase is promoted by the action of a-melanocyte stimulating hormone or UV rays. It is well established that a substance has a depigmenting effect if it acts directly on the vitality of the epidermal melanocytes where melanogenesis normally occurs and/or if it interferes with one of the stages in melanin biosynthesis. Pigmentation disorders can take a variety of forms like hyperpigmentation, hypopigmentation, and uneven pigmentation, and include but are not limited to melasma (mask of pregnancy or chloasma), liver spots (which often develop with age) and leukoderma such as vitiligo. […] The degree of pigmentation disorders of the skin in many cases increases with the age of the individuals. Because of the involvement of tyrosinase in melanogensis, tyrosinase inhibition assays are often used to screen potential skin lightening agents. Some mushroom tyrosinases (such as that from Agaricus bisporus) are homologous with mammalian tyrosinase, and mushroom tyrosinase is often used in inhibition assays due to its ready commercial availability. However, the enzyme inhibition assays may not be as good an indicator of activity as assays which are more similar to the intended clinical or cosmetic use, such as the MatTek Corporation's MelanoDerm™ Skin Model (a system which consists of normal, human-derived epidermal keratinocytes and melanocytes formed into a multilayered model of human epidermis).
# MelanoDerm (Mel-300-B) assay was conducted according to the manufacturer's instruction (MatTek Corporation). Every other day, the test articles were administered into the EPI-100-NMM-113 culture medium, and positive control, 25 uL of 2% Kojic acid was applied topically. After 14 days, tissue viability and melanocyte morphology were visually verified and tissue melanin was extracted and quantitated against a standard curve. % melanin was calculated as follows: (MelaninDMSO−Melanincomp)/MelaninDMSO×100. The assay was performed for various compounds described herein, as well as for control compounds 4ER, 4IPR, 4HR, 4CHR, kojic acid, and hydroquinone.
# [1] = test system: mushroom tyrosinase (Sigma T3824); assay: Mushroom Tyrosinase Inhibition Assay; type: biochemical; conditions: 10 μM compound, 300 μM L-Tyrosine, 84 units/mL enzyme, pH 6.5, 15 min at room temperature
# Procedure: 10 μM compound, 300 μM L-Tyrosine, and 84 units/mL of mushroom tyrosinase (Sigma T3824) were combined into 0.05 M potassium monophosphate buffer at pH=6.5, and incubated for 15 min at room temperature. Absorbance was recorded at 490 nm. % tyrosinase inhibition was calculated as follows: (AbsDMSO−Abscmpd)/AbsDMSO×100. The assay was performed for various compounds described herein, as well as for control compounds 4-ethyl resorcinol (4ER), 4-isopropylresorcinol (4IPR), 4-hexylresorcinol (4HR), 4-cyclohexylresorcinol (4CHR), 5-methylresorcinol (5MR), kojic acid (KA), and hydroquinone (HQ), structures of which are shown below.
# B16F1 cells = assay: B16 Melanin Assay; type: cell-based; conditions: 1 mM Theophylline stimulated, 72 h, media absorbance 405 nm corrected for viability (Calcein-AM); compound concentration not stated
# Procedure: After trypsinization, cells were seeded at 3,000 cells per well in a 96-well plate and allowed to attach overnight. 1 mM Theophylline was used to stimulate melanogenesis, and the compound of interest was added. […] (AbsDMSO/CalceinDMSO-[…]/CalceinDMSO×100. The assay was performed for various compounds described herein, as well as for control compounds 4ER, 4IPR, 4HR, 4CHR, 5MR kojic acid, and hydroquinone. Results are shown in Table 2.
SMILES,"Mushroom Tyrosinase (% remaining enzyme activity), % TYR Activity [1] [%]","MatTek Assay (% Melanin), % Melanin 3D EpiDerm (MelanoDerm (Mel-300-B); 10 μM in culture medium) [%]","MatTek Assay (% Melanin), % Melanin 3D EpiDerm (MelanoDerm (Mel-300-B); 30 μM in culture medium) [%]","B16 Media Melanin (% Melanin), % Melanin B16 (B16F1 cells) [%]","MatTek Assay (% Melanin), % Melanin 3D EpiDerm (MelanoDerm (Mel-300-B); positive control, 25 uL of 2% Kojic acid applied topically) [%]"
"Cc1cc(O)cc(O)c1Cc1ccccc1 [4,5BnMR, 4-benzyl-5-methylbenzene-1,3-diol]",97,82,61,86,–
"Oc1cc(O)c(Cc2ccccc2)c(C(F)(F)F)c1 [4,5BnTFMR, 2-Benzyl-1,5-dihydroxy-3-trifluoromethyl-benzene]",93,–,75,82,–
"Oc1cc(O)c(C2CCCCC2)c(F)c1 [4,5CHFR, 4-cyclohexyl-5-fluorobenzene-1,3-diol]",1,87,81,51,–
"Cc1cc(O)cc(O)c1C1CCCCC1 [4,5CHMR, 4-cyclohexyl-5-methylbenzene-1,3-diol]",22,66,44,58,–
"Oc1cc(O)c(C2CCCCC2)c(C(F)(F)F)c1 [4,5CHTFMR]",100,89,–,65,–
"Cc1cc(O)cc(O)c1C1CCCC1 [4,5CPMR, 4-cyclopentyl-5-methylbenzene-1,3-diol]",71,65,55,61,–
"Oc1cc(O)c(C2CCCCC2)c(F)c1 [4,5EFR, 4-cyclohexyl-5-fluorobenzene-1,3-diol]",3,–,–,87,–
"CCc1c(O)cc(O)cc1C(F)(F)F [4,5ETFMR, 2-Ethyl-1,5-dihydroxy-3-trifluoromethyl-benzene]",–,81,66,68,–
"Cc1cc(O)cc(O)c1C(C)C [4,5IPMR, 4-isopropyl-5-methylbenzene-1,3-diol]",–,102,72,71,–
"Cc1cc(O)cc(O)c1C(C)c1ccccc1 (centres unmarked) [4,5PEMR, 4-(1-phenylethyl)-5-methylbenzene-1,3-diol]",–,98,62,87,–
"Cc1cc(O)cc(O)c1CC(F)(F)F [4,5TFEMR, 4-(2,2,2-trifluoroethyl)-5-methylbenzene-1,3-diol]",–,81,72,90,–

# The next lines start with results.
"Mushroom Tyrosinase (% remaining enzyme activity), % TYR Activity [1] [%]",SMILES,"MatTek Assay (% Melanin), % Melanin 3D EpiDerm (MelanoDerm (Mel-300-B); 10 μM in culture medium) [%]","MatTek Assay (% Melanin), % Melanin 3D EpiDerm (MelanoDerm (Mel-300-B); 30 μM in culture medium) [%]","B16 Media Melanin (% Melanin), % Melanin B16 (B16F1 cells) [%]","MatTek Assay (% Melanin), % Melanin 3D EpiDerm (MelanoDerm (Mel-300-B); positive control, 25 uL of 2% Kojic acid applied topically) [%]"
30,"Cc1cc(O)cc(O)c1C1CC1 [4,5CPrMR, 4-cyclopropyl-5-methylbenzene-1,3-diol]",99,82,62,–
93,"CCc1c(C)cc(O)cc1O [4,5EMR, 4-ethyl-5-methylbenzene-1,3-diol]",102,79,69,–
10,"CCCCCCc1c(C)cc(O)cc1O [4,5HMR, 4-hexyl-5-methylbenzene-1,3-diol]",77,68,78,–
32,"Cc1cc(O)cc(O)c1CC1CCCC1 [4,5MCPMR, 4-cyclopentylmethyl-5-methylbenzene-1,3-diol]",94,72,90,–
100,"CCC(C)c1c(C)cc(O)cc1O (centres unmarked) [4,5sBMR, 4-sec-butyl-5-methylbenzene-1,3-diol]",75,67,76,–
0,"Oc1ccc(C2CCCCC2)c(O)c1 [Compound 4CHR, 4-cyclohexylresorcinol, reference compound]",65,36,63,–
2,"CCc1ccc(O)cc1O [Compound 4ER, 4-ethyl resorcinol, reference compound]",84,61,48,–
1,"CCCCCCc1ccc(O)cc1O [Compound 4HR, 4-hexylresorcinol, reference compound]",93,72,71,–
1,"CC(C)c1ccc(O)cc1O [Compound 4IPR, 4-isopropylresorcinol, reference compound]",71,46,77,–
100,"Cc1cc(O)cc(O)c1 [Compound 5MR, 5-methylresorcinol, reference compound]",–,–,100,–
100,"Oc1ccc(O)cc1 [Hydroquinone, hydroquinone, reference compound]",94,92,100,–
84,"O=c1cc(CO)occ1O [Kojic Acid, kojic acid, reference compound]",100,100,100,75
